From patent US20230271969A1, “NITROGEN-CONTAINING FUSED RING DERIVATIVE INHIBITOR, PREPARATION METHOD THEREFOR AND USE THEREOF” (Shanghai Hansoh Biomedical Co., Ltd., priority 2020, published 2023)
Where two headings read alike, the source gives them in different places.

Assays:
NK3 receptors = molecular target: T1, NK3 receptors (Homo sapiens, UniProt P29371); assay: Calcium ion fluidity (FLIPR) in cells with stable expression of NK3 receptors; type: cell-based; details: calcium signal, antagonist mode, read-out: NK3R IC50 (nM) FLIPR
T1 construct: expressed in transfected cells
T1 sequence (P29371 1-465): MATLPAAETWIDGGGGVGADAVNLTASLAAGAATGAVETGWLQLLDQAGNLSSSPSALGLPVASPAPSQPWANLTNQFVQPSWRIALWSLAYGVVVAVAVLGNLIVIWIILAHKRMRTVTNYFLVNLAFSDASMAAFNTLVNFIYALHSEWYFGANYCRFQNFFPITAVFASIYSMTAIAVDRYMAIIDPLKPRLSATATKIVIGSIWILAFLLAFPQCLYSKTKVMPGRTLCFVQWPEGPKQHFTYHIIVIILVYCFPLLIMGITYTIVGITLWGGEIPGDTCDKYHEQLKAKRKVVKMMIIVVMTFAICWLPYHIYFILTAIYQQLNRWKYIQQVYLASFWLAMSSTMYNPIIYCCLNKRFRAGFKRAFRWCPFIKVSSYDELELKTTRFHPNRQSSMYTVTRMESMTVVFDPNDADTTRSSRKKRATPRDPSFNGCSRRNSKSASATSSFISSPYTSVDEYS

[1] = Pharmacokinetic assay in SD rats (plasma and brain tissue); type: in vivo; details: rat, po, male SD rats, p.o. 5 mg/kg; for AUC(0-t): read-out: Area under curve AUC0-t; for Tmax: read-out: Peak time tmax; for Cmax: read-out: Plasma concentration Cmax
Protocol: Test Example 4. Pharmacokinetic Assays in SD Rats
SD rats were used as test animals. The in vivo (plasma and brain tissue) pharmacokinetic behavior of the compounds of the present invention was investigated by oral administration of the compound in rats at a dose of 5 mg/kg.
Male SD rats (21 animals per group), purchased from Shanghai JieSiJie Laboratory Animal Co., Ltd., under the Animal Production License Number of SCXK (Shanghai) 2013-0006 No. 311620400001794.
The experimental drug was dissolved in 0.5% CMC-Na (1% Tween 80) by sonication to formulate a clear solution or a homogeneous suspension.
After an overnight fast, male SD rats (21 animals per group) were administered p.o. with the experimental drug at an administration dose of 5 mg/kg and the administration volume of 10 mL/kg.
Rats were sacrificed with CO2 at 0, 0.5, 1, 2, 4, 8 and 24 hours before and after the drug administration. 8 mL of blood was collected by cardiac puncture, placed in EDTA-K2 tubes, and centrifuged at 4° C. at 6,000 rpm for 6 min. Plasma was separated and stored at −80° C. The whole brain tissue was dissected and weighed, and then placed in a 2 mL centrifuge tube and stored at −80° C.
2.6 Sample Processing: • 1) 160 μL of acetonitrile was added to 40 μL of plasma sample for precipitation. After mixing, the sample was centrifuged at 3500×g for 5-20 minutes. • 2) 90 μL of acetonitrile containing internal standard (100 ng/mL) was added to 30 μL of plasma or brain homogenate sample for precipitation. After mixing, the sample was centrifuged at 13,000 rpm for 8 minutes. • 3) 70 μL of water was added to 70 μL of treated supernatant, and mixed by vortex for 10 minutes. Then 20 μL of the sample was analyzed by LC/MS/MS to determine the concentration of the compound to be tested. The LC/MS/MS instrument for analysis was AB Sciex API 4000 Qtrap.
2.7 Liquid Chromatography Analysis: • Liquid chromatography conditions: Shimadzu LC-20AD pump • Chromatographic column: Agilent ZORBAX XDB-C18 (50×2.1 mm, 3.5 μm) Mobile phase: Eluent A was 0.1% formic acid in water, and Eluent B was acetonitrile. • Flow rate: 0.4 mL/min • Elution time: 0-4.0 minutes, the eluate was as follows:
The major pharmacokinetic parameters were calculated by using WinNonlin 6.1, and the results of the pharmacokinetic experiments in rats were shown in Table 3 below: […]

Row | Compound | IC50 (NK3 receptors) | AUC(0-t) ([1]; Brain) | Tmax ([1]; Brain) | Cmax ([1]; Brain) | AUC(0-t) ([1]; Plasma) | Tmax ([1]; Plasma) | Cmax ([1]; Plasma) | half-life ([1]; Plasma, read-out: Half life t1/2 (converted)) | MRT ([1]; Plasma, read-out: Mean residence time MRT)
1 | C[C@@H]1c2nnc(-c3nc4cnc(Cl)cc4s3)n2CCN1C(=O)c1ccc(F)cc1 [Example 37, (R)-(3-(6-Chlorothiazolo[4,5-c]pyridin-2-yl)-8-methyl-5,6-dihydro-[1,2,4]triazolo[4,3-a]pyrazin-7(8H)-yl)(4-fluorophenyl)methanone] | 48.9 nM | 4200 ng·h/mL | 4 h | 1640 ng/mL | 77800 ng·h/mL | 8 h | 4000 ng/mL | – | –
2 | [2H]c1cc(C(=O)N2CCn3c(-c4nc(Cl)ns4)nnc3[C@H]2C)ccc1F [Example 56, (R)-(3-(3-Chloro-1,2,4-thiadiazol-5-yl)-8-methyl-5,6-dihydro-[1,2,4]triazolo[4,3-a]pyrazin-7(8H)-yl)(4-fluorophenyl-3-d)methanone] | 155 nM | 2710 ng·h/mL | 1 h | 798 ng/mL | 6150 ng·h/mL | 2 h | 1170 ng/mL | 3.1 h | 5.1 h
